Reference: patent US6288056A, “Intermittent claudication therapeutic drugs comprising pyrroloazepines” (Suntory Limited, priority 1999, dated 2001)
Like-named read-outs stand apart in the source and are kept apart here.

What was measured:
[1] = test system: Mesenteric artery; experiment: Relaxation of vasoconstriction induced by supernatant of aggregated platelets, mesenteric artery; parameters: species or system male Japanese white rabbit; conditions: Oryctolagus cuniculus, aggregated platelet supernatant 1/100-fold dilution, read-out: EC50 (50% relaxation)
Protocol: (§1) After a male Japanese white rabbit was anesthetized by intramuscular administration of ketamine (product of sankyo Company, Limited) at 50 mg/kg, a polyethylene-made catheter ["PE240" (trade name), manufactured by Becton Dickinson Co., Ltd.] was inserted into a carotid artery, and the blood was collected with a tube containing a 1/10 volume of a 3.8% aqueous solution of sodium citrate [NACALAI TESQUE, Inc.]. The blood so collected was centrifuged at 90 g (900 rpm) for 15 minutes ["05PR-22" (trade name), manufactured by Hitachi Koki Co., Ltd.] and platelet-rich plasma (PRP) was collected from the upper layer.
(§2) After addition of an equiamount of buffer A (25 mM Tris-HCl, 130 mM NaCl, 1.5 mM EDTA, pH 7.4), to PRP, the mixture was centrifuged at 4° C. and 1,500 g (3,000 rpm) for 10 minutes. The thus-obtained platelet pellet was suspended again in buffer A, followed by centrifugation at 4° C. and 1,500 g (3,000 rpm) for 5 minutes. The resulting platelet pellet was suspended again in buffer B (25 mM Tris-HCl, 130 mM NaCl, 0.3 mM EDTA, pH 7.4), followed by centrifugation under the same conditions. […]
(§3) After the vascular strip preparations had been left over for about 1 hour and their resting tensions had been confirmed to become stable, the tonicities of the vascular strip preparations were measured using the isometric transducers. […]

[2] = test system: gastrocnemius-plantaris-sole muscle (GPS muscle); experiment: Test in Rat Intermittent Claudication Model (muscle contraction force after collagen infusion); assay type: in vivo, male Wistar rats; conditions: 20 minutes after collagen infusion
Protocol: Based on the methods proposed by Angersbach, D. et al. in Int. J. Microcirc. Clin. Exp., 7, 15-30 (1988) and by Loots, W. et al. in Am. J. Physiol. 265, H158-H164 (1993), an intermittent claudication model was designed as will be described next. Firstly, male Wistar rats which ranged in age from 9 to 10 weeks were ligated at right femoral arteries under anesthesia with pentobanbital [40 mg/kg, intraperitoneal administration, "Nembutal Injection" (trademark), product of Dainabot Co., Ltd.] and were fed for 1 week. After fasted overnight, a suspension of (-)-(S)-5-[3-[4-(4-fluorophenyl)piperazin-1-yl]propyl]-8-hydroxy-1-methyl- 1,4,5,6,7,8-hexahydropyrrolo[3,2-c]azepin-4-one (test compound a) in a 0.5% aqueous solution of carboxymethylcellulose sodium salt was orally administered at 1, 3 and 10 mg/kg, respectively.
After an elapsed time of 60 minutes since the administration, each rat was subjected to anesthetization with urethan ([…], intraperitoneal administration, product of Sigma Chemical Co.) and α-chloralose ([…], intraperitoneal administration, product of NACALAI TESQUE, INC.). To administer collagen into artery, a cannula ["SP-31" (trade name), manufactured by Natsume Seisakusho Co., Ltd.] was inserted through the left carotid artery such that its leading end was located on a proximal side of the branching point of the iliac artery. Thereafter, the rat was held in a prone position, and the skin of the right hind leg was flayed to expose the gastrocnemius-plantaris-sole muscle (GPS muscle). The Achilles tendon was bound and cut off, connected to an isometric tension meter ["CBE-1 10 kg" (trade name), manufactured by MINEBEA Co., Ltd.], and then held in place with a resting tension of about 100 g. […] Contraction force produced upon electric stimulation was recorded [amplifier: "AP-620G" (trade name), manufactured by Nihon Kohden Corporation, recorder: "WT-645G" (trade name), manufactured by Nihon Kohden Corporation]. […]

[3] = test system: Femoral artery; experiment: Relaxation of vasoconstriction induced by supernatant of aggregated platelets, femoral artery; parameters: species or system male Japanese white rabbit; conditions: Oryctolagus cuniculus, aggregated platelet supernatant 1/100-fold dilution, read-out: EC50 (50% relaxation)
Protocol: as §1, §2, §3

[4] = test system: pulmonary thromboembolic death; experiment: Inhibitory Action in Mouse Pulmonary Thromboembolic Death; assay type: in vivo, male ddY mice; conditions: 3 mg/kg oral; within 10 minutes after injection of collagen 1 mg/kg and serotonin hydrochloride 5 mg/kg
Protocol: Male ddY mice which ranged in age from 4 to 5 weeks were used after fasted overnight. Suspensions of Compounds a-c, which will be specified subsequently herein, in a 0.5% aqueous solution of carboxymethylcellulose sodium were orally administered at 3 mg/kg.
After 1 hour, collagen [1 mg/kg, "Collagenreagent Form" (trade name), product of Moriya Sangyo Co., Ltd.] and serotonin hydrochloride (5 mg/kg, product of Sigma Chemical Co.) were injected through the candal veins.
An investigation was made for mortality rates of mice within 10 minutes after the injection.

[5] = test system: Pulmonary artery; experiment: Relaxation of vasoconstriction induced by supernatant of aggregated platelets, pulmonary artery; parameters: species or system male Japanese white rabbit; conditions: Oryctolagus cuniculus, aggregated platelet supernatant 1/100-fold dilution, read-out: EC50 (50% relaxation)
Protocol: as §1, §2, §3

[6] = test system: Renal artery; experiment: Relaxation of vasoconstriction induced by supernatant of aggregated platelets, renal artery; parameters: species or system male Japanese white rabbit; conditions: Oryctolagus cuniculus, aggregated platelet supernatant 1/100-fold dilution, read-out: EC50 (50% relaxation)
Protocol: as §1, §2, §3

[7] = test system: platelet aggregation (platelet-rich plasma); experiment: Inhibitory Effect on Canine Platelet Aggregation (ex vivo after oral administration, collagen + serotonin); assay type: in vivo, canine (male beagles); conditions: Canis lupus familiaris, 0.1 mg/kg oral, collagen + serotonin 1 μM, read-out: Aggregation inhibition rate
Protocol: Four male beagles which ranged in age from 17 to 19 months were used after fasted overnight. A suspension of (-)-(S)-5-[3-[4-(4-fluorophenyl)piperazin-1-yl]propyl]-8-hydroxy-1-methyl- 1,4,5,6,7,8-hexahydropyrrolo[3,2-c]azepin-4-one (test compound a) in a 0.5% aqueous solution of carboxymethylcellulose sodium salt was orally administered at 0.1 mg/kg. Before the administration of the test compound and after elapsed times of 1, 2, 4 and 6 hours from the administration, blood samples were collected from the foreleg veins. The blood was sampled using syringes containing a 1/10 volume of a 3.8% aqueous solution of sodium citrate ["cytorate for ESR Measurement" (trade name), product of The Green Cross Corp.].
Each collected blood sample was centrifuged at room temperature and 190 g for 7 minutes, and the upper layer, platelet-rich plasma (PRP), was collected. The remaining blood was centrifuged at 1,500 g for 10 minutes, and the upper layer, platelet-poor plasma (PPP), was collected. Using collagen [final concentration: 0.03 to 5 μg/ml, "Collagenreagent Form" (trade name), product of Moriya Sangyo Co., Ltd.] and serotonin (final concentration: 1 μM, serotonin hydrochloride, product of Sigma Chemical Co.) as a platelet proaggrecant, the platelet aggregating ability was measured by the Born turbidimetry. Specifically, using PPP as a control, a solution of calcium chloride (product of NACALAI TESQUE, INC.) was added to PRP at 37° C. to give a final concentration of 1 mM. After 2 minutes, the proaggrecant was added. Variations in transmittance, which took place in the course of subsequent 10 minutes, were measured using a platelet aggregometer measuring instrument ["PAM-8C" (trade name), manufactured by MEBANCS, INC.], and its maximum value was recorded as a platelet aggregation rate (%). […] As an aggregation inhibition rate, the proportion of an aggregation rate after the administration of the test compound relative to an aggregation rate before the administration of the test compound was shown in percentage.

[8] = test system: Coronary artery; experiment: Relaxation of vasoconstriction induced by supernatant of aggregated platelets, coronary artery; parameters: species or system male Japanese white rabbit; conditions: Oryctolagus cuniculus, aggregated platelet supernatant 1/100-fold dilution, read-out: EC50 (50% relaxation)
Protocol: as §1, §2, §3

[9] = test system: Basilar artery; experiment: Relaxation of vasoconstriction induced by supernatant of aggregated platelets, basilar artery; parameters: species or system male Japanese white rabbit; conditions: Oryctolagus cuniculus, aggregated platelet supernatant 1/100-fold dilution, read-out: EC50 (50% relaxation)
Protocol: as §1, §2, §3

Row | Structure (SMILES) | EC50 [1] [nM] | Contraction force ([2]; 1 mg/kg oral) [g] | Contraction force ([2]; 3 mg/kg oral) [g] | Contraction force ([2]; 10 mg/kg oral) [g] | EC50 [3] [nM] | Mortality rate [4] [%] | EC50 [5] [nM] | EC50 [6] [nM] | inhibition at 0.1 mg/kg ([7]; 1 hr after administration) [%] | inhibition at 0.1 mg/kg ([7]; 2 hr after administration) [%] | inhibition at 0.1 mg/kg ([7]; 4 hr after administration) [%] | inhibition at 0.1 mg/kg ([7]; 6 hr after administration) [%] | EC50 [8] [nM] | EC50 [9] [nM]
1 | Cn1ccc2c1[C@@H](O)CCN(CCCN1CCN(c3ccc(F)cc3)CC1)C2=O [Compound a, (-)-(S)-5-[3-[4-(4-fluorophenyl)piperazin-1-yl]propyl]-8-hydroxy-1-methyl-1,4,5,6,7,8-hexahydropyrrolo[3,2-c]azepin-4-one] | 32 ± 22 | 93 ± 17 | 116 ± 15 | 122 ± 10 | 328 ± 112 | 10 | 14 ± 3 | 246 ± 79 | 99.7 ± 0.3 | 99.8 ± 0.2 | 99.3 ± 0.7 | 72.5 ± 16.1 | 254 ± 54 | 138 ± 55
2 | Cc1cn(C)c2c1C(=O)N(CCCN1CCN(c3ccc(F)cc3)CC1)CCC2O (stereo not shown) [Compound c, 5-[3-[4-(4-fluorophenyl)piperazin-1-yl]propyl]-8-hydroxy-1,3-dimethyl-1,4,5,6,7,8-hexahydropyrrolo[3,2-c]azepin-4-one] |  |  |  |  |  | 30 |  |  |  |  |  |  |  | 
3 | Cn1ccc2c1C(O)CCN(CCCN1CCN(c3ccc(F)cc3)CC1)C2=O (racemic) [Compound b, (±)-5-[3-[4-(4-fluorophenyl)piperazin-1-yl]propyl]-8-hydroxy-1-methyl-1,4,5,6,7,8-hexahydropyrrolo[3,2-c]azepin-4-one] |  |  |  |  |  | 25 |  |  |  |  |  |  |  | 
